{"source": "patent US4225611A", "about": "“Novel n-substituted benzenesulfonamide, process for its preparation and medicaments containing it” (Choay S.A., priority 1977, dated 1980)", "key": {"[1]": {"experiment": "acute toxicity in the rat, by the oral route", "details": "in vivo, single dose", "description": "The acute toxicity is expressed by the lethal dose 50, that is to say the dose resulting in the death of 50% of the animals.\nThis study has been carried out on groups of 10 Swiss male mice whose weight varied from 24 to 26 g, and on groups of six Wistar male rats of 120 to 125 g.\nThe administration was made in a single dose by the oral route in the rats and the mice, and also by the intravenous route in the case of the mice."}, "[2]": {"system": "acetyl salicylic acid ulcer", "experiment": "anti-ulcer activity: acetyl salicylic acid ulcer", "assay_type": "in vivo, rat", "details": "50 mg/kg oral, 1 hour before 50 mg/kg AAS oral; sacrifice 24 hours later; versus controls", "method": "(§1) The compound according to the invention was studied for its preventive properties with respect to ulcers generated by various means. Thus the ratio in the reduction of gastric attacks caused by acetyl salicylic acid and phenylbutazone was determined, as well as the ratio in the reduction of stress ulcers and SHAY ulcers, or again vasomotor reactions to polymyxine B.\n(§2) For these tests, male Wistar rats were used (from 250 to 350 g according to the test). For each test and each dose, 10 animals at least were treated.\n(§3) In the case of acetyl salicylic acid (AAS) and of phenylbutazone, the test procedure was as follows:\n(§4) administration by the oral route of 50 mg/kg of the compound in aqueous solution with 3% of gum arabic after 23 hours fasting;\n(§5) initiation of ulcerogenesis 1 hour later, by the administration of 50 mg/kg of AAS by the oral route or of 100 mg/kg of phenylbutazone by the intraperitoneal route;\n(§6) sacrifice of the animals 24 hours later and examination of the gastric mucous membrane.\n(§7) The control animals only received AAS or phenylbutazone.\n(§8) In all the preceding tests, the results were obtained by examination of the gastric mucous membrane to determine the presence either of a congested area, or of more or less serious ulcerations.\n(§9) Study of the levels of reduction of attacks in the treated animals, with respect to the controls, was effected by the method of O. FOUSSARD and G. […]"}, "phenylbutazone ulcer": {"system": "phenylbutazone ulcer", "experiment": "anti-ulcer activity: phenylbutazone ulcer", "assay_type": "in vivo, rat", "details": "50 mg/kg oral, 1 hour before 100 mg/kg phenylbutazone intraperitoneal; sacrifice 24 hours later; versus controls", "method": "as §1, §2, §3, §4, §5, §6, §7, §8, §9"}, "stress ulcer": {"system": "stress ulcer", "experiment": "anti-ulcer activity: stress ulcer (total immobilization)", "assay_type": "in vivo, rat", "details": "50 mg/kg oral, 1 hour before 18 hours immobilization; versus controls", "method": "as §1, §2\nFor the stress ulcer, the rats, 1 hour after having received 50 mg/kg of the product according to the invention by the oral route, were totally immobilized for 18 hours in a cylindrical wire cage, according to the technique of ROSSI (C.R. Soc. Biol., 1956, 150, 2124-2126) and BONFILS (C.R. Soc. Biol., 1957, 151, 1149-1150). They were then sacrificed and examined.\nas §8\n(§10) Study of the levels of reduction of attacks in the treated animals, with respect to the controls, was effected by the method of O. FOUSSARD and G. […] (Therapie, 1972, 27, 705-721) applying the formula of J. M. LWOFF (J. Pharmacol., 1971, 2, 1, 81-83)."}, "SHAY ulcer": {"system": "SHAY ulcer", "experiment": "anti-ulcer activity: SHAY ulcer (ligature of the pylorus)", "assay_type": "in vivo, rat", "details": "100 mg/kg oral, 1 hour before ligature of the pylorus, versus controls", "method": "as §1, §2\nThe SHAY ulcer was produced in the fasting rat after 48 hours. 47 hours after the beginning of the fast, by the oral route, 100 mg/kg of the product to be tested was administered, then, 1 hour later, ligature of the pylorus was effected after light anesthesia with ether. The sacrifice of the animals took place 12 to 24 hours after the ligature.\nas §8, §10"}, "[3]": {"system": "vasomotor lesions and hemorhagia of the glandular portion of the stomach", "experiment": "anti-ulcerogenic action against polymyxine B vasomotor lesions", "assay_type": "in vivo, rat", "details": "100 mg/kg oral before 1.5 mg/kg polymyxine B intraperitoneal; sacrifice two hours later; 15 rats versus 15 controls", "method": "as §1, §2\nIn the tests with polymyxine B, 100 mg/kg of the compound according to the invention was administered by the oral route before the intraperitoneal injection of 1.5 mg/kg of polymyxine B, then, two hours later after this last injection, the rats were sacrificed. The injection of polymyxine B has the effect of causing vasomotor lesions and hemorhagia of the glandular portion of the stomach. It is by measurement of the extent of these lesions that the anti-ulcerogenic action of the compound was determined (A. BELL and Coll., Biologie et gastro-enterologie, 1969, 2, 117-126-Suppt. No. 2 aux Archives francaises des maladies de l'appareil digestif, 1969, 58, 10-11, October-November)."}}}
{"smiles": "CCN1CCCC1CNS(=O)(=O)c1cc(Cl)c(N)cc1OC", "note": "(stereo not shown) [(I), chloro-5 methoxy-2 amino-4 N-(N-ethyl methyl-2 pyrrolidino) benzenesulfonamide]", "values": [{"measurement": "LD50", "setting": "[1]", "result": 1500, "unit": "mg/kg"}, {"measurement": "level of reduction of attacks, acetyl salicylic acid ulcer", "setting": "[2]", "result": 40.0, "unit": "%"}, {"measurement": "level of reduction of attacks, phenylbutazone ulcer", "setting": "phenylbutazone ulcer", "result": 46.9, "unit": "%"}, {"measurement": "level of reduction of attacks, stress ulcer", "setting": "stress ulcer", "result": 50.8, "unit": "%"}, {"measurement": "level of reduction of attacks, SHAY ulcer, after 12 hours of ligature", "setting": "SHAY ulcer; 12 hours of ligature", "result": 60.4, "unit": "%"}, {"measurement": "level of reduction of attacks, SHAY ulcer, after 24 hours of ligature", "setting": "SHAY ulcer; 24 hours of ligature", "result": 46.1, "unit": "%"}, {"measurement": "reduction in the lesions (polymyxine B)", "setting": "[3]", "result": "~63", "unit": "%"}]}
